Measurements as given in BindingDB's records for doi:10.1021/cb400075f (Boehringer Ingelheim (Canada), 2013).

How the values were obtained:
Gag-Pol polyprotein [1] = biological target: T1, Gag-Pol polyprotein (Human immunodeficiency virus type 1 group M subtype B (isolate NY5), UniProt P12497); assay: Capsid Assembly Assay
Description: In vitro capsid assembly assay (CAA) was used in a HTS to identify potential inhibitors of capsid assembly.

Gag-Pol polyprotein [2] = biological target: T1, Gag-Pol polyprotein; assay: Capsid Assembly Assay; remark: listed apart in the source

CN(C)CCCn1c(-c2c[nH]nc2-c2ccccc2)nc2cc(-c3ccc(C(=O)O)cc3)ccc21 [Benzimidazole Inhibitor, 1]
IC50 (Gag-Pol polyprotein [1]): 6100 nM
Kd (Gag-Pol polyprotein [2]): 43000 nM

CN(C)CCCn1c(-c2c[nH]nc2-c2ccc(C(F)(F)F)cc2)nc2cc(-c3ccc(C(=O)O)cc3)ccc21 [Benzimidazole Inhibitor, 2]
IC50 (Gag-Pol polyprotein [1]): 1200 nM
Kd (Gag-Pol polyprotein [2]): 4300 nM

O=C(O)c1ccc(-c2ccc3c(c2)nc(-c2c[nH]nc2-c2ccc(C(F)(F)F)cc2)n3CCCn2ccnc2)cc1 [Benzimidazole Inhibitor, 3]
IC50 (Gag-Pol polyprotein [1]): 1400 nM
Kd (Gag-Pol polyprotein [2]): 8000 nM

O=C(O)c1ccc(-c2ccc3c(c2)nc(-c2c[nH]nc2-c2cccc(Cl)c2)n3CCCn2ccnc2)cc1 [Benzimidazole Inhibitor, 4]
IC50 (Gag-Pol polyprotein [1]): 1200 nM

O=C(O)c1ccc(-c2ccc3c(c2)nc(-c2c[nH]nc2-c2ccc(C(F)(F)F)cc2)n3CCCN2CCCCC2)cc1 [Benzimidazole Inhibitor, 5]
IC50 (Gag-Pol polyprotein [1]): 670 nM

O=C(O)c1ccc(-c2ccc3c(c2)nc(-c2c[nH]nc2-c2ccc(Cl)c(Cl)c2)n3CCCNC2CCCCC2)cc1 [Benzimidazole Inhibitor, 6]
IC50 (Gag-Pol polyprotein [1]): 350 nM
Kd (Gag-Pol polyprotein [2]): 500 nM

COCCN=CC1C(=O)N(C)c2ccc(C(F)(F)F)cc2N(c2ccccc2)C1=O (stereo unspecified) [Benzodiazepine Inhibitor, 7]
IC50 (Gag-Pol polyprotein [1]): 890 nM
